Results from patent US5656622A, “15,15-dialkyl-substituted derivatives of estradiol” (Schering Aktiengesellschaft, priority 1993, dated 1997).

Assays:
[1] = test system: 17β-hydroxysteroid dehydrogenase from human placenta; test: stability against 17β-hydroxysteroid dehydrogenase, incubation with placenta microsomes; format: in vitro ADME; conditions: NADP 0.5 mmol
Description: To determine the stability of estradiol (A) itself as well as of a compound according to the invention, i.e., 15,15-dimethyl-estra-1,3,5(10)-triene-3,17β-diol (B), against 17β-hydroxysteroid dehydrogenase from human placenta, the test substances are incubated with placenta microsomes in the presence of NADP (nicotinamide-adenine-dinucleotide phosphate; 0.5 mmol).
The steroids (initial substrate and product) are extracted and separated by HPLC. For evaluation, the quotients are formed from the electronically integrated peak areas of the corresponding reaction product (namely the assumed 17-keto compound) and the initial substance and plotted against the incubation time (FIG. 1).

[2] = test system: estrogen receptor; test: estrogen receptor binding test; conditions: tissue from rat uteri, 3H-estradiol as reference substance
Description: The estrogenic effectiveness of the compounds according to the invention can be shown by the results of the estrogen receptor binding test. In this known in vitro test, tissue from rat uteri is prepared and radioactively-labeled ^3 H-estradiol is used as reference substance. The compound according to the invention 15,15-dimethyl-estra-1,3,5(10)-triene-3,17β-diol accordingly has a competition factor K of 1.5.

SMILES: CC1(C)C[C@H](O)[C@@]2(C)CC[C@@H]3c4ccc(O)cc4CC[C@H]3[C@H]12 [15,15-dimethylestra-1,3,5(10)-triene-3,17β-diol]
- conversion to the 17-keto compound by 17β-hydroxysteroid dehydrogenase (quotient of HPLC peak areas product/initial substance against incubation time, FIG. 1) [1]: only moderate substrate
- competition factor K [2]: 1.5
